Laboratory results published in patent US9718781B2, “Methods and compounds for treating proliferative disorders and viral infections” (University College Dublin, National University of Ireland, …, priority 2012, dated 2017).
Values joined by “and” are separate entries in the source; they are usually repeats but may differ in a detail not shown here. Identical values can stand only once. Like-named read-outs stand apart in the source and are kept apart here.

Legend:
TPα = biological target: T1, TPα (Homo sapiens, UniProt P21731); experiment: U46619-induced [Ca2+]i mobilization in HEK.TPα cells; assay type: cell-based; settings: for IC50: HEK.TPα cells, 1 μM U46619, Table 2, read-out: IC50 data for U46619-mediated [Ca2+]i mobilization, TPα; for TPα:TPβ Selectivity Ratio: IC50 TPα/IC50 TPβ
T1 construct: expressed in transfected cells
T1 sequence (P21731 1-343): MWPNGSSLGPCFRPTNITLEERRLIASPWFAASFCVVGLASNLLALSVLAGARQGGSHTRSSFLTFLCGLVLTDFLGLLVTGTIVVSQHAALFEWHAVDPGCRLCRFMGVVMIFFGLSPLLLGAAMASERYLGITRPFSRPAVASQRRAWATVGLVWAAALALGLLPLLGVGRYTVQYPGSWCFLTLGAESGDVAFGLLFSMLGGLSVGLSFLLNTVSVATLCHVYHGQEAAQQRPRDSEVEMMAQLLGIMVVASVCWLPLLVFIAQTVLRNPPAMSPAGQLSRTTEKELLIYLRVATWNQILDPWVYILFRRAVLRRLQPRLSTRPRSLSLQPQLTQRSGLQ
Description: (§1) An appropriate functional test for the evaluation of the agonistic and/or antagonistic potency of the compounds of the invention is the determination of calcium flux. Both TPα and TPβ are coupled to the G-protein Gαq. Therefore, stimulation of these receptors ultimately leads to a release of intracellular calcium ([Ca^2+]i) from intracellular stores. Consequently, the determination of [Ca^2+]i flux represents an appropriate functional test for the evaluation of the agonistic/antagonistic potency of compounds of the invention. Calcium can be measured using a molecule characterized by the covalent combination of a Ca^2+ chelating group and a fluorophore group. The Ca^2+ binding properties of these indicators are formed by the presence of a tetracarboxylic acid core as found for example in EGTA (Ethylene Glycol bis(2-aminoethyl)Tetraacetic Acid). Binding of Ca^2+ produces a wavelength shift in either the excitation or emission fluorescence spectra or a change in the emission intensity. Whereas the Ca^2+ binding to EGTA is pH dependent, recent dyes are designed from an EGTA derivative, BAPTA (1,2-Bis(2-Aminophenoxy)ethane-N,N,N′,N′-Tetraacetic Acid). Loading of these dyes inside cells commonly uses esterified forms (acetoxymethyl ester), which are able to cross the cell membranes and are subsequently hydrolyzed by esterases inside the cell.
(§2) Estimation of [Ca^2+]i flux is calculated from the fluorescence signal (F). For calibration, the maximal fluorescence (Fmax, Ca^2+-saturated form of the dye) as well as minimal fluorescence (Fmin, Ca^2+-free form of the dye) must be determined. These parameters are determined usually in situ after the experiment, for example by subsequent addition to the mixture of a cell-disrupting agent that releases all Ca^2+ such as Triton X100 and a potent Ca^2+-chelating agent such as EGTA. After subtraction of background fluorescence, [Ca^2+]; flux can be calculated for non-ratiometric indicators.
(§3) Intracellular [Ca^2+]; fluxes were measured using a fluorescence plate reader following a modified protocol of Kassack et al., ‘Quantitative comparison of functional screening by measuring intracellular Ca^2+ with radioligand binding at recombinant human dopamine receptors’, AAPS Pharmsci, 2002, 4(4); 102-111, in cell lines (e.g. HEK293 or other cell type) endogenously-expressing or over-expressing either TPα, TPβ or any other receptor or protein to be screened.
(§4) By way of example, HEK 293 cells which have been grown for 3-4 days in normal growth media (minimum essential media containing 10% FBS and 2 mmol/1 L-glutamine), under normal growth conditions (37° C., in humidified 5% CO2 atmosphere) are washed and harvested in KREBs-HEPES buffer (118 mM NaCl, 4.7 mM KCl, 1.2 mM MgSO4, 1.2 mM KH2PO4, 4.2 mM NaHCO3, 11.7 mM D-glucose, 1.3 mM CaCl2, 10 mM HEPES, pH 7.4). Cells are then incubated with 3 μM Fluo-4 in KREBs-HEPES buffer containing 1% Pluoronic F-127, for 1 hr at 25° C. with agitation. Then, cells are washed in KREBs-HEPES buffer containing 0.5% BSA and re-suspended at a final concentration of 3×10^5 cells/ml. Approx. 5.4×10^4 cells per well are plated in a 96-well plate and pre-incubated with test compounds for 10 m prior to measuring the fluorescence intensity at 520 nm for 25 seconds at 1 s intervals to monitor baseline using the Fluoroskan Ascent. Agonist (e.g., 1 μM U46619) is injected into separate wells by the automatic pipettor and fluorescence intensity is monitored at 520 nm for 75 seconds at 1 s intervals. Thereafter, Triton X100 and EGTA are added sequentially where Fmax refers to maximal fluorescence intensity measured after permeabilization of the cells with 2% Triton X100 and Fmin refers to fluorescence intensity measured after addition of 1 mM EGTA.
(§5) The dye Fluo-4 has its excitation peak at 480 nm, in the visible spectra, which spare cells to be damaged by UV (340-360 nm) stimulation and reduces auto-fluorescence of cells. […]

TPβ = biological target: T2, TPβ (Homo sapiens, UniProt P21731); experiment: U46619-induced [Ca2+]i mobilization in HEK.TPβ cells; assay type: cell-based; settings: HEK.TPβ cells; 1 μM U46619; Table 2; read-out: IC50 data for U46619-mediated [Ca2+]i mobilization, TPβ
T2 construct: expressed in transfected cells
T2 sequence (P21731 1-407 isoform P21731-2): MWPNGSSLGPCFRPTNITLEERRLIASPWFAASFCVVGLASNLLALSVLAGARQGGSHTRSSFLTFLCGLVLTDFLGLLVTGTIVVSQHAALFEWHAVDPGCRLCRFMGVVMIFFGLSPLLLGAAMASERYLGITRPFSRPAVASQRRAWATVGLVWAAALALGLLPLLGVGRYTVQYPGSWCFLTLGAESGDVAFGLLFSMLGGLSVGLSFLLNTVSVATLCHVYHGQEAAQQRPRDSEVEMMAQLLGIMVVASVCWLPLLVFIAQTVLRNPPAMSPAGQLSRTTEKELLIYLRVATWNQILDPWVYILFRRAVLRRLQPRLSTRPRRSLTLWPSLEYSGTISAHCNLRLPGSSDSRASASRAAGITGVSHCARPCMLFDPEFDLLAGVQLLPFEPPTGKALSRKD
Description: as §1, §2, §3, §4, §5

human platelets [1] = experiment: U46619-induced human platelet aggregation ex vivo (platelet rich plasma); assay type: cell-based; settings: human platelets ex vivo, Table 3, read-out: IC50 data for inhibition of U46619-induced platelet aggregation
Description: A modification of the turbidimetric method originally developed by Born & Cross (Born, G. V. and Cross, M. J., The Aggregation of Blood Platelets, J Physiol, 1963, 168:178-95) is used. The principle is based on the diffraction of the light by particles. When a light beam passes through a suspension of particles, it is diffracted, depending on the number and the size of the particles in suspension.
In the Born & Cross method, a light beam passes through a platelet suspension and the quantity of light is measured by a detector placed after the sample. Upon platelet aggregation, the size of platelet aggregates will increase while the total number of free platelets will decrease. Consequently, less light will be diffracted and the detector will record an increase in light intensity. The aggregometer has been developed based on these concepts. Variations in light transmission recorded by this device reflects the platelet physiology. When an agonist of platelet aggregation is added to a platelet suspension, platelets undergo activation and shape change. This step is characterized by an increase in platelet's apparent volume and thus a decrease of transmitted light. Subsequent platelet aggregation gradually forms aggregates of increasing size. Transmitted light slightly increases until a plateau is reached. The aggregation of platelet can be confirmed after the experiment by visual direct inspection of the test tube.
Preparation of platelet suspension is achieved by blood centrifugation at 160 g for 10 minutes. The PRP is re-centrifuged at 160 g for 10 min to remove contaminating red and white blood cells. The supernatant which is collected contains the platelets rich plasma (PRP). The remaining blood is subsequently centrifuged at 900 g for 15 min in order to retrieve plasma (platelets poor plasma, PPP). PRP is diluted with PPP to reach a final concentration of 150×10^3 […] PRP is kept warmed at 37° C. in the aggregometer and the adequate dilution of drug to test is introduced in the sample. Platelet aggregation is induced after 10 minutes incubation. Light transmission (T) is measured throughout the experiment, which is ended 8 minutes after induction of aggregation. Maximal light transmission (Tmax) is determined in the sample without drugs. Minimal light transmission (Tmin) is measured in PRP without inducer.
The effect of NTP4 and the previously identified lead TP antagonist, TP20, on U46619-mediated platelet aggregation in side-by-side comparisons was performed in platelet rich plasma (PRP) using the PAP-8E platelet aggregometer.
FIG. 4A-4C show the effect of TP20 & NTP4 on U46619-mediated platelet aggregation. PRP was prepared from blood taken from healthy volunteers into syringes containing 3.8% sodium citrate and 10 μM indomethacin such that the final ratio of anticoagulant to blood was 1:9. Aliquots of PRP (300 μl) were pre-incubated for 10 min with the TP antagonists, TP20 and NTP4, where 2-fold serial dilutions from 1 μM were prepared for each, prior to stimulating platelets with 1 μM U46619, incubated at 37° C., with stirring. FIG. 4A and FIG. 4B: Representative dose-response platelet aggregation profiles for TP20 (FIG. 4A) and NTP4 (FIG. 4B), where data is presented as Percentage Aggregation, as determined by changes in light transmission using the PAP-8E Platelet Aggregation Profiler as a function of time. FIG. 4C: The dose-response curves for platelet aggregation are presented as the mean (±S.E.M.) maximum Percentage Aggregation as a function of the log of the TP antagonist concentration. Data presented is representative of ≧6 independent experiments.

[2] = test system: A/Puerto Rico/8/1934 (H1N1) influenza A virus; assay type: in vivo, BALB/c mice
human platelets [3] = experiment: Thrombin-induced platelet aggregation of human platelets ex vivo; assay type: cell-based
Description: (§6) The method of assessing platelet aggregation also allows evaluation of the effect of the compounds of the invention on platelet aggregation upon stimulation by other agonists, e.g., adenosine diphosphate (ADP) and thrombin.

human platelets [4] = experiment: ADP-induced platelet aggregation of human platelets ex vivo; assay type: cell-based
Description: as §6

[5] = lung, Day 4, Tamiflu 10 mg/kg, TP20 0.36 mg/kg
[6] = lung, Day 4, number of animals of 3

Molecule: COc1cccc(Oc2ccc([N+](=O)[O-])cc2S(=O)(=O)NC(=O)NC(C)(C)C)c1 [Compound 9h, reference compound]
- IC50 (TPα): 612 nM
- TPα:TPβ Selectivity Ratio (TPα): 2.3
- IC50 (TPβ): 270 nM
- IC50 (human platelets [1]; Homo sapiens, Platelet): 513 nM

Molecule: O=C(O)CCC/C=C\CC1C2CCC(O2)C1CNNC(=O)Nc1ccccc1 (stereo not shown) [SQ29,548, reference compound]
- IC50 (human platelets [1]; Homo sapiens, Platelet): 8.33 nM

Molecule: CCOC(=O)C1=C[C@@H](OC(CC)CC)[C@H](NC(C)=O)[C@@H](N)C1 [Tamiflu]
- survival over the study ([2]; Tamiflu 10 mg/kg, TP20 360 μg/kg, 14 days): survived the full duration
- Alveolar Acute Inflammation, number of animals with the finding ([2]; lung, Day 4, 3 animals): (1)
- Bronchiolar Erosion, number of animals with the finding ([2]; lung, Day 4, 3 animals): (3)
- Bronchiolar Exudate, number of animals with the finding ([2]; lung, Day 4, 3 animals): (3)
- Bronchiolar acute Inflammation, number of animals with the finding ([2]; lung, Day 4, 3 animals): (3)
- Vascular Necrosis, number of animals with the finding ([2]; lung, Day 4, 3 animals): (0)
- Extent of Perivascular Edema (Mean ± S.E.M.), Per Animal [2, 5]: 21.2 ± 1.71 (52) arbitrary units and 20.7 ± 1.21 (66) arbitrary units and 19.3 ± 1.24 (77) arbitrary units
- Extent of Perivascular Edema (Mean ± S.E.M.), Per Treatment Group [2, 5]: 20.6 ± 0.90 arbitrary units
- reduction in the perivascular edema compared to vehicle [2, 5]: does not reduce the extent of perivascular edema
- Alveolar Acute Inflammation, Minimal [2, 6]: 1
- Bronchiolar Erosion, Mild [2, 6]: 2
- Bronchiolar Erosion, Minimal [2, 6]: 0
- Bronchiolar Erosion, Moderate [2, 6]: 1
- Bronchiolar Exudate, Mild [2, 6]: 2
- Bronchiolar Exudate, Minimal [2, 6]: 1
- Bronchiolar Exudate, Moderate [2, 6]: 0
- Bronchiolar acute Inflammation, Mild [2, 6]: 3
- Bronchiolar acute Inflammation, Minimal [2, 6]: 0
- Perivascular Edema, Mild [2, 6]: 1
- Perivascular Edema, Minimal [2, 6]: 1
- Day of Minimum Body Weight Recorded, Mean (Mean Day to Recovery) ([2]; mouse, in vivo): 8.4
- Day of Minimum Body Weight Recorded, per animal ([2]; mouse, in vivo): 9 (7×) and 7 (3×)
- Perivascular Edema, number of animals with the finding ([2]; mouse, in vivo): (2)
- Weight @ Day 0 ([2]; n = 10/group): 17.56 ± 0.18
- Weight @ Day 14 ([2]; n = 10/group): 17.4 ± 0.32

Molecule: CC(C)(C)NC(=O)NS(=O)(=O)c1cc([N+](=O)[O-])ccc1Oc1cccc(-c2ccc(C(F)(F)F)cc2)c1 [XII]
- effect on thrombin-induced platelet aggregation (human platelets [3]): did not affect
- effect on ADP-induced platelet aggregation (human platelets [4]): did not affect
- IC50 (TPα): 89.8 nM
- TPα:TPβ Selectivity Ratio (TPα): 1
- IC50 (TPβ): 86 nM
- IC50 (human platelets [1]; Homo sapiens, Platelet): 129 nM

Molecule: Cc1ccc(-c2cccc(Oc3ccc([N+](=O)[O-])cc3S(=O)(=O)NC(=O)NC(C)(C)C)c2)cc1 [XLI]
- effect on thrombin-induced platelet aggregation (human platelets [3]): did not affect
- effect on ADP-induced platelet aggregation (human platelets [4]): did not affect
- IC50 (TPα): 106 nM
- TPα:TPβ Selectivity Ratio (TPα): 6.4
- IC50 (TPβ): 16.5 nM
- IC50 (human platelets [1]; Homo sapiens, Platelet): 230 nM

Molecule: COC(=O)c1ccc(-c2cccc(Oc3ccc([N+](=O)[O-])cc3S(=O)(=O)NC(=O)NC(C)(C)C)c2)cc1 [XLVI]
- effect on thrombin-induced platelet aggregation (human platelets [3]): did not affect
- effect on ADP-induced platelet aggregation (human platelets [4]): did not affect
- IC50 (TPα): 114 nM
- TPα:TPβ Selectivity Ratio (TPα): 3
- IC50 (TPβ): 36.5 nM
- IC50 (human platelets [1]; Homo sapiens, Platelet): 4.12 nM

Molecule: CC(=O)c1ccc(-c2cccc(Oc3ccc([N+](=O)[O-])cc3S(=O)(=O)NC(=O)NC(C)(C)C)c2)cc1 [XLV]
- effect on thrombin-induced platelet aggregation (human platelets [3]): did not affect
- effect on ADP-induced platelet aggregation (human platelets [4]): did not affect
- IC50 (TPα): 186 nM
- TPα:TPβ Selectivity Ratio (TPα): 5.5
- IC50 (TPβ): 33.7 nM
- IC50 (human platelets [1]; Homo sapiens, Platelet): 159 nM

Molecule: N-(tert-butylcarbamoyl)-2-(3-methoxyphenoxy)-5-nitrobenzenesulfonamide [Compound 9ag, reference compound]
- IC50 (TPα): 1750 nM
- TPα:TPβ Selectivity Ratio (TPα): 4.5
- IC50 (TPβ): 379 nM
- IC50 (human platelets [1]): 985 nM
